From article PMC12670396, “Crizotinib- or Ceritinib-Conjugated Platinum(IV) Prodrugs As Potent Multiaction Agents Inducing Antiproliferative Effects in 2D and 3D Cancer Cell Models” (Journal of Medicinal Chemistry, 2025)

Assays:
[1] = Cytotoxicity in hepatocyte-like cells, sulphorhodamine B assay; format: cell-based; conditions: hepatocyte-like cells from human pluripotent cells
Experimental: (§1) Growth inhibition activity in cancer cell lines was compared with the activity to inhibit the proliferation of normal (noncancerous) cells, namely MRC-5, IMR-90, hTERT-HPNE, and MCF10A cells. Selectivity indexes (SI) were calculated as (IC50 in noncancerous cells)/(average IC50 in cancer cells). […] We further assessed the toxicity of several of the compounds in hepatocyte-like cells (HLC) generated from human pluripotent cells.
(§2) Cytotoxicity in hepatocyte-like cells (HLC). STEMdiff Hepatocyte Kit was used to generate HLC from human pluripotent stem cells. Cytotoxicity of several of the tested compounds in HLC was evaluated using the sulphorhodamine B assay.

CT26 cell line = assay: MTT cytotoxic/antiproliferative activity, 72 h; format: cell-based, murine; conditions: Mus musculus
RD = assay: MTT cytotoxic/antiproliferative activity, 72 h; format: cell-based, human; conditions: Homo sapiens, MTT, 72 h
[2] = test system: normal (noncancerous) cells MRC-5, IMR-90, hTERT-HPNE, MCF10A; assay: MTT, noncancerous cell lines (average, selectivity index); format: cell-based, human
Experimental: as §1, with “pluripotent cells. […]” for “pluripotent cells.”

MMC2 = assay: MTT cytotoxicity in NER-deficient cells, 72 h; format: cell-based, Chinese hamster
Description: The cytotoxicity assay was also employed to determine whether DNA damage might be involved in the mechanism of action of the tested compounds. The Chinese hamster ovary MMC2 cell line harbors the ERCC3/XPB mutation, which renders it deficient in nucleotide excision repair (NER), whereas the parent line CHOK1 is proficient in this repair process. Thus, the MMC2 line is often more sensitive to agents causing DNA damage, especially NER-reparable DNA damage, than CHOK1. […] Phosphorylation of H2AX is a commonly used marker of DNA damage. […]

[3] = test system: panel of six cancer cell lines; assay: MTT, panel of six cancer cell lines (average, ranges); format: cell-based, human; conditions: Homo sapiens; average over six cancer cell lines; read-out: av cancer (average IC50 in cancer cells)
Experimental: (§3) A panel of six cancer cell lines was used to evaluate the cytotoxic potential of the investigated compounds.
as §2

CHOK1 = assay: MTT cytotoxicity in NER-proficient cells, 72 h; format: cell-based, Chinese hamster; conditions: Cricetulus griseus, CHO-K1
Description: The cytotoxicity assay was also employed to determine whether DNA damage might be involved in the mechanism of action of the tested compounds. The Chinese hamster ovary MMC2 cell line harbors the ERCC3/XPB mutation, which renders it deficient in nucleotide excision repair (NER), whereas the parent line CHOK1 is proficient in this repair process. Thus, the MMC2 line is often more sensitive to agents causing DNA damage, especially NER-reparable DNA damage, than CHOK1. […] Phosphorylation of H2AX is a commonly used marker of DNA damage.
as §2

A549 = assay: MTT cytotoxic/antiproliferative activity, 72 h; format: cell-based, human; conditions: Homo sapiens; A549, MTT, 72 h
NCI-H2228 = assay: MTT cytotoxic/antiproliferative activity, 72 h; format: cell-based, human; conditions: Homo sapiens; NCI-H2228, MTT, 72 h
A549 spheroids = assay: Cytotoxicity in 3D spheroids, CellTiter-Glo 3D; format: cell-based, human; conditions: Homo sapiens, A549 3D spheroids, 96 h
Experimental: (§4) In the 3D structure, the gradients of gases, nutrients, and therapeutics play a role in the final cytotoxicity of a compound.
(§5) A549 and NCI-H2228 cells were seeded in ultralow attachment, U-shape plates (Corning) at a density of 800 cells/well in the tumorsphere medium consisting of DMEM/F12 medium (Sigma), fibroblast growth factor (20 ng/mL; Sigma), epidermal growth factor 2 (10 ng mL^–1; Sigma), B27 supplement (1×; Gibco), bovine serum albumin, bovine serum albumin (BSA) (1.5 mg mL^–1; Sigma). […] CellTiter-Glo 3D viability assay was used for the experiment evaluation following the manufacturer’s instructions. The bioluminescence signal, proportional to the number of living cells, was measured using the luminescence reader SPARK, and IC50 values were calculated.

NCI-H2228 spheroids = assay: Cytotoxicity in 3D spheroids, CellTiter-Glo 3D; format: cell-based, human; conditions: Homo sapiens, NCI-H2228 3D spheroids, 96 h
Experimental: as §4, §5

MDA-MB-231 = assay: MTT cytotoxic/antiproliferative activity, 72 h; format: cell-based, human; conditions: Homo sapiens; MDA-MB-231, MTT, 72 h
HCT116 = assay: MTT cytotoxic/antiproliferative activity, 72 h; format: cell-based, human; conditions: Homo sapiens, HCT-116; HCT116, MTT, 72 h
ALK = target: T1, ALK (Homo sapiens, UniProt Q9HC35+Q9UM73); assay: Western blot of ALK phosphorylation state; format: cell-based; conditions: NCI-H2228 lysates, IC50 concentrations, 24 h
T1 construct: Western blot detection of the ALK phosphorylation state in lysates of NCI-H2228 cells exposed to the tested compounds; endogenous in cells; host or cells: NCI-H2228
T1 sequence (Q9HC35+Q9UM73 fused): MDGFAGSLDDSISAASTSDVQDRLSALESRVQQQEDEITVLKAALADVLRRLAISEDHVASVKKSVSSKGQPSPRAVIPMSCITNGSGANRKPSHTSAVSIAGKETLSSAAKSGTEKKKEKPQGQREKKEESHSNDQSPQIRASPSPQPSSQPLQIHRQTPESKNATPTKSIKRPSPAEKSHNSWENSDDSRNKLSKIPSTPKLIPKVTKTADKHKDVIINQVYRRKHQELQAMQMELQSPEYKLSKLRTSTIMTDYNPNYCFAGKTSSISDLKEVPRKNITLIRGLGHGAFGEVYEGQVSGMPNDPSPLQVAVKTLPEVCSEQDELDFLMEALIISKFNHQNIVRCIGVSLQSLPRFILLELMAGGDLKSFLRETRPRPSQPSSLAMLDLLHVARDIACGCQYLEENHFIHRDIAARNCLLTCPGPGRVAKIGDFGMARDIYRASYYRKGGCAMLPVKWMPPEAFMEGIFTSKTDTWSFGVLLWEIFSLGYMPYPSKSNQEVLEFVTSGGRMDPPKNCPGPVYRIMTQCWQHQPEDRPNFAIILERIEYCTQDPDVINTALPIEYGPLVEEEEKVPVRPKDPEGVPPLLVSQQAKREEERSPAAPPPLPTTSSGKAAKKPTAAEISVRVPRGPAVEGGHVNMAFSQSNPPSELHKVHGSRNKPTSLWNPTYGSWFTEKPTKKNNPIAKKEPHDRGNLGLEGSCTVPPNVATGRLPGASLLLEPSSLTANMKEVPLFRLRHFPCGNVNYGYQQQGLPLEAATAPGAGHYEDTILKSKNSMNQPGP
Experimental: (§6) Whereas the signals of pALK and pMET are decreased in the presence of the tested compounds, the overall amount of ALK and MET is not markedly changed.
(§7) NCI-H2228 cells were seeded in 6-well plates at a density of 2 × 10^5 cells/well and incubated overnight. […] The cells were then harvested and lysed using RIPA lysis buffer supplemented with protease and phosphatase inhibitors as recommended by the manufacturer. Protein extracts were resolved with SDS-PAGE, transferred to a PVDF membrane, and the respective proteins were detected with specific antibodies (anti-phosphoALK, anti-ALK, anti-phosphoMET, anti-MET, and anti-GADPH) and HRP-conjugated secondary antibodies. The signals were obtained with SignalFire ECL Reagent and recorded with an Amersham680 reader.

MCF10A = assay: MTT cytotoxicity in noncancerous cells, 72 h; format: cell-based, human; conditions: Homo sapiens, MCF-10A
Experimental: as §1, §2

MRC-5 = assay: MTT cytotoxicity in noncancerous cells, 72 h; format: cell-based, human; conditions: Homo sapiens, MRC5, MRC-5, MTT
Experimental: as §1, §2

IMR-90 = assay: MTT cytotoxicity in noncancerous cells, 72 h; format: cell-based, human; conditions: Homo sapiens, IMR-90, MTT
Experimental: as §1, §2

hTERT-HPNE = assay: MTT cytotoxicity in noncancerous cells, 72 h; format: cell-based, human; conditions: Homo sapiens
Experimental: as §1, §2

MET = target: T2, MET (Homo sapiens, UniProt P08581); assay: Western blot of MET phosphorylation state; format: cell-based; conditions: NCI-H2228 lysates, IC50 concentrations, 24 h
T2 construct: Western blot analysis of the phosphorylation state of ALK and MET; endogenous in cells; host or cells: NCI-H2228
T2 sequence (P08581 25-1390): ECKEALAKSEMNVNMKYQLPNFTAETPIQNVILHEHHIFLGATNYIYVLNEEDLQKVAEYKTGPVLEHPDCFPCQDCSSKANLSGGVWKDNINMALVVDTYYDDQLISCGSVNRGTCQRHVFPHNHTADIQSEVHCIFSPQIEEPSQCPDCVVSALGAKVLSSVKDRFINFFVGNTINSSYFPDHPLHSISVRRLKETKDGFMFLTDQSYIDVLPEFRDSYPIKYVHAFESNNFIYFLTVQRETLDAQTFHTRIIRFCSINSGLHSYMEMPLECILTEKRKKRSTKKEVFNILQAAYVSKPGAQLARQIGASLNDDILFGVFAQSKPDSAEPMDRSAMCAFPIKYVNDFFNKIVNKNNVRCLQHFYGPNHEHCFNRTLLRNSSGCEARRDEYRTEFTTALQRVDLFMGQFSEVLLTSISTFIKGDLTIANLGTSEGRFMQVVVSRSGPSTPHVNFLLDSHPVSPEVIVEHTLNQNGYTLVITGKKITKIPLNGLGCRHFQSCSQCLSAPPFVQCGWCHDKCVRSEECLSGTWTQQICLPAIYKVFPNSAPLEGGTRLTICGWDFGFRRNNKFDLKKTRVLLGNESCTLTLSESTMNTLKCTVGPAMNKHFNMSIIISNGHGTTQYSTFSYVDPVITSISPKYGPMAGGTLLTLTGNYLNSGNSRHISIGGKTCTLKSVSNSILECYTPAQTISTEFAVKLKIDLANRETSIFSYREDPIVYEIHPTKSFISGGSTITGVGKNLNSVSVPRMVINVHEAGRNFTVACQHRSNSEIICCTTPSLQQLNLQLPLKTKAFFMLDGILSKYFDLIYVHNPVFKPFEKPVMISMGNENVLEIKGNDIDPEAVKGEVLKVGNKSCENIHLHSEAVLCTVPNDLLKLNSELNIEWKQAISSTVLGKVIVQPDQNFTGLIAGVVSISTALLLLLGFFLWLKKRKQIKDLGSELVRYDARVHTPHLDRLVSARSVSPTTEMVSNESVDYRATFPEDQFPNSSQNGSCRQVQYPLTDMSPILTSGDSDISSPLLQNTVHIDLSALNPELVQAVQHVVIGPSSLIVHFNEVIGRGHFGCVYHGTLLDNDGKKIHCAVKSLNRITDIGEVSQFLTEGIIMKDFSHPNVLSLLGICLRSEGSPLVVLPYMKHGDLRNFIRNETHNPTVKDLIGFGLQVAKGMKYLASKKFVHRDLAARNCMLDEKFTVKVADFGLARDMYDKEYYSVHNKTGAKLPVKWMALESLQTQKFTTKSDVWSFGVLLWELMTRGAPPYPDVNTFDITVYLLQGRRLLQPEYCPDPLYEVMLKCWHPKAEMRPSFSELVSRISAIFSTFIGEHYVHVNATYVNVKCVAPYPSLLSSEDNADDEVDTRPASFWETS
Experimental: as §6, §7

U87-MG = assay: MTT cytotoxic/antiproliferative activity, 72 h; format: cell-based, human; conditions: Homo sapiens, U-87 MG, MTT, 72 h
Experimental: as §3, §2

CT26 and NCI-H2228 cells = assay: Extracellular HMGB1 (ELISA); format: cell-based; conditions: IC50 concentrations, 24 h
Experimental: The amount of HMGB1 in the medium was determined using an enzyme-linked immunosorbent assay (ELISA).
CT26 and NCI-H2228 cells were seeded in 48-well plates at a density of 5 × 10^4 cells/well and grown overnight. […] Aliquots of the supernatants were then withdrawn and processed using the HMGB1 Express ELISA kit (TECAN) according to the manufacturer’s instructions. The final absorbance, proportional to the HMGB1 amount, was read at 420 nm using a multimode SPARK reader (TECAN).

Which results are given for `Cc1cc(Nc2ncc(Cl)c(Nc3ccccc3S(=O)(=O)C(C)C)n2)c(OC(C)C)cc1C1CCNCC1` [compound 5, ceritinib]?
IC50 [1]: 8000 ± 3000 nM; IC50 (CT26 cell line): 1200 ± 300 nM; IC50 (RD): 1500 ± 300 nM; IC50 ([2]; Homo sapiens, average over MRC-5, IMR-90, hTERT-HPNE, MCF10A, read-out: av norm (average IC50 in noncancerous cells)): 3400 nM; SI, selectivity index ([2]; IC50(normal cells)/averageIC50(cancer cells)): 3.0; IC50 (MMC2; Cricetulus griseus, MMC2 (NER deficient), MTT, 72 h): 1300 ± 300 nM; Index F (MMC2; IC50(CHOK1)/IC50(MMC2)): 1.08; IC50 [3]: 1100 nM; IC50 (CHOK1): 1400 ± 600 nM; IC50 (A549): 900 ± 200 nM; IC50 (NCI-H2228): 510 ± 40 nM; IC50 (A549 spheroids): 2300 ± 800 nM; IC50 (NCI-H2228 spheroids): 750 ± 90 nM; IC50 (MDA-MB-231): 1400 ± 900 nM; IC50 (HCT116): 900 ± 200 nM; phosphorylation of ALK (ALK): inhibit the phosphorylation; IC50 (MCF10A): 3400 ± 900 nM; IC50 (MRC-5): 2200 ± 500 nM; IC50 (IMR-90): 3700 ± 400 nM; IC50 (hTERT-HPNE): 4100 ± 200 nM; phosphorylation of MET (MET): inhibit the phosphorylation; IC50 (U87-MG): 1100 ± 1000 nM

Which results are given for `COc1cccc2c1C(=O)c1c(O)c3c(c(O)c1C2=O)C[C@@](O)(C(=O)CO)C[C@@H]3O[C@H]1C[C@H](N)[C@H](O)[C@H](C)O1` [DOX, doxorubicin]?
IC50 (CT26 cell line): 2100 ± 300 nM; HMGB1 externalization relative to nontreated control (CT26 and NCI-H2228 cells): highest increase
